From US6479493B1, “Methods for treatment of type I diabetes” (Cell Pathways, Inc., priority 2001, dated 2002)
Where two headings read alike, the source gives them in different places.

How the values were obtained:
[1] = biological target: T1, cGMP binding sites of the GST-cGB-PDE5 fusion protein (Homo sapiens, UniProt O76074); assay: cGMP binding assay with GST-cGB-PDE5 fusion protein; conditions: for competition with cGMP binding at high concentration: 100 μM compound versus cGMP 2 μM
T1 construct: made in house; host or cells: E. coli BL21 (DE3)
Source text: RT-PCR method is used to obtain the cGB domain of PDE5 with forward and reverse primers designed from bovine PDE5A cDNA sequence (McAllister-Lucas L. M. et al, J. Biol. Chem. 268, 22863-22873, 1993) and the selection among PDE 1-10 families. 5′-3′, Inc. kits for total RNA followed by oligo (dT) column purification of mRNA are used with HT-29 cells. […] It is then cloned into pGEX-5X-3 glutathione-S-ransferase (GST) fusion vector (Pharmacia Biotech )with tac promoter, and EcoRI and XhoI cut sites. The fusion vector is then transfected into E. Coli BL21 (DE3) bacteria (Invitrogen). The transfected BL21 bacteria is grown to log phase, and then IPTG is added as an inducer. The induction is carried at 20° C. for 24 hrs. The bacteria are harvested and lysed. The soluble cell lysate is incubated with GSH conjugated Sepharose 4B (GSH-Sepharose 4B). The GST-cGB-pDE5 fusion protein can bind to the GSH-Sepharose beads, and the other proteins are washed off from beads with excessive cold PBS.
Then, the mixture is transferred to Brandel MB-24 cell harvester with GF/B as the filter membrane followed by 2 washes with 10 mL of cold 5 mM potassium buffer(pH 6.8). The membranes are then cut out and transferred to scintillation vials followed by the addition of 1 mL of H2O and 6 mL of Ready Safe™ liquid scintillation cocktail to each vial. The vials are counted on a Beckman LS 6500 scintillation counter.
The quenching by filter membrane or other debris are also calibrated.

[2] = biological target: native bovine PDE5 (Bos taurus, UniProt Q28156); conditions: read-out: Kd of cGMP binding, native bovine PDE5; cited from earlier work
[3] = system: U937 cells; assay: apoptosis induction of U937 cells, active caspase 3 indirect immunofluorescence; assay type: cell-based; conditions: 24 hours
Description: U937 cells (from ATCC Rockville, Md.) were grown in RPMI media supplemented with 5% FCS, glutamine, antibiotic/antimycotic and sodium pyruvate. Total RNA was isolated from two U937 cultures, one treated with 5 nM TPA for 48 hours and one grown in normal media as listed above, using the Rouche High Pure RNA Isolation Kit (cat #1 828 665) as per manufacturers protocol. cDNA was then synthesized from the total RNA using GibcoBRL SuperscriptII (Cat #18064-022) reverse transcriptase as per manufacturers protocol. The resulting cDNA was used as a template for RT-PCR reactions using primer sets specific for PDE2 (forward: […], reverse: […]) or PDE5 (forward: […], reverse: […]). mRNA for PDE2 and 5 were both present in the untreated U937 cells. Upon treatment with TPA, the relative amounts of PDE2 mRNA increased 5 fold. Therefore, U937 cells treated with TPA and driven to differentiate into an activated macrophage like state have elevated levels of PDE2 mRNA (see FIG. 1).
The presence of PDE2 and PDE5 protein within U937 cells was confirmed by indirect immunofluorescence (IIF). U937 cells were cultured as above. Two U937 cultures, one grown in the presence of 5 nM TPA for 48 hours and one grown in normal media were processed. All cultures were collected by centrifugation (Shandon Cytospin, 2 minutes @600 rpm) onto poly-L lysine-coated slides and immediately fixed in fresh 3% paraformaldehyde buffered in PBS for 10 minutes. Adherent cultures were grown on coverslips and fixed as above. Cells were permeablized in 0.2% Triton-100 for 2 minutes. Slides were blocked with blocking buffer (5% goat serum, 5% glycerol, 1% gelatin from cold water fish skin and 0.04% NaN3 in PBS) for 1 hour at room temperature.
Slides were then incubated for 1 hour at 37° C. in a humid chamber with antibodies specific for PDE2 (generated in a sheep against the peptide […]) or PDE5 (generated in sheep against the peptide […]). […]
The level of apoptosis in U937 cells was quantified by scoring 500 consecutive cells for the presence of active caspase 3. […]

SMILES: CCCCOC1C2OP(=O)(O)OCC2OC1n1cnc2c(N)ncnc21 (stereo not drawn) [2′-O-butyl-cAMP]
- competition with cGMP in binding to the cGMP binding sites of GST-cGB-PDE5 ([1]; 3H-cGMP 2 μM, 22° C., 1 hour): did not compete with cGMP in binding

SMILES: CCCCOC1C2OP(=O)(O)OCC2OC1n1cnc2c(=O)[nH]c(N)nc21 (stereo not drawn) [2′-O-butyl-cGMP]
- competition with cGMP in binding to the cGMP binding sites of GST-cGB-PDE5 ([1]; 3H-cGMP 2 μM, 22° C., 1 hour): did not compete with cGMP in binding

SMILES: Nc1ncnc2c1ncn2[C@@H]1O[C@@H]2COP(=O)(O)O[C@H]2[C@H]1O [Cyclic AMP]
- competition with cGMP in binding to the cGMP binding sites of GST-cGB-PDE5 [1]: did not compete with cGMP in binding

SMILES: O=c1[nH]cnc2c1ncn2[C@@H]1O[C@@H]2COP(=O)(O)O[C@H]2[C@H]1O [Cyclic IMP]
- competition with cGMP binding at high concentration [1]: can partially compete with cGMP

SMILES: Nc1nc2c(nc(Br)n2[C@@H]2O[C@@H]3COP(=O)(O)O[C@H]3[C@H]2O)c(=O)[nH]1 [Example 8-bromo-cGMP, 8-bromo-cGMP]
- competition with cGMP binding at high concentration [1]: can partially compete with cGMP

SMILES: O=C([O-])C1CCN(c2nc(NCc3ccc4c(c3)OCO4)c3cc(Cl)ccc3n2)CC1.[Na+] [Example E4021]
- competition with cGMP in binding to the cGMP binding sites of GST-cGB-PDE5 ([1]; 3H-cGMP 2 μM, 22° C., 1 hour): None of the PDE5 inhibitors showed any competition with cGMP in binding

SMILES: CSc1ccc(/C=C2/C(C)=C(CC(=O)O)c3cc(F)ccc32)cc1 [Sulindac sulfide]
- competition with cGMP in binding to the cGMP binding sites of GST-cGB-PDE5 ([1]; 3H-cGMP 2 μM, 22° C., 1 hour): None of the PDE5 inhibitors showed any competition with cGMP in binding

SMILES: Nc1ccn([C@@H]2O[C@@H]3COP(=O)(O)O[C@H]3[C@H]2O)c(=O)n1 [cCMP]
- competition with cGMP in binding to the cGMP binding sites of GST-cGB-PDE5 ([1]; 3H-cGMP 2 μM, 22° C., 1 hour): did not compete with cGMP in binding

SMILES: Nc1nc2c(ncn2[C@@H]2O[C@@H]3COP(=O)(O)O[C@H]3[C@H]2O)c(=O)[nH]1 [cGMP, cyclic 3′,5′-guanosine monophosphate]
- Kd ([1]; read-out: Kd of cGMP binding to GST-cGB-PDE5 fusion protein, two cGMP binding sites): 1600 ± 200 nM
- Kd [2]: 1300 nM

SMILES: O=c1ccn([C@@H]2O[C@@H]3COP(=O)(O)O[C@H]3[C@H]2O)c(=O)[nH]1 [cUMP, cyclic UMP]
- competition with cGMP in binding to the cGMP binding sites of GST-cGB-PDE5 ([1]; 3H-cGMP 2 μM, 22° C., 1 hour): did not compete with cGMP in binding

SMILES: CC1=C(CC(=O)O)c2cc(F)ccc2/C1=C\c1ccc(S(C)(=O)=O)cc1 [exisulind]
- competition with cGMP in binding to the cGMP binding sites of GST-cGB-PDE5 ([1]; 3H-cGMP 2 μM, 22° C., 1 hour): None of the PDE5 inhibitors showed any competition with cGMP in binding

SMILES: COc1ccc(C2CNC(=O)C2)cc1OC1CCCC1 (stereo not drawn) [rolipram]
- levels of apoptosis (active caspase 3) ([3]; 0.5 uM): No increase in the levels of apoptosis compared to normal background was observed

SMILES: CCCc1nn(C)c2c(=O)[nH]c(-c3cc(S(=O)(=O)N4CCN(C)CC4)ccc3OCC)nc12 [sildenafil]
- levels of apoptosis (active caspase 3) ([3]; 0.3 nM): No increase in the levels of apoptosis compared to normal background was observed

SMILES: CCCOc1ccccc1-c1nc2nn[nH]c2c(=O)[nH]1 [zaprinast]
- competition with cGMP in binding to the cGMP binding sites of GST-cGB-PDE5 ([1]; 3H-cGMP 2 μM, 22° C., 1 hour): None of the PDE5 inhibitors showed any competition with cGMP in binding
